Patent publication US12171758B1, “Crystalline salt forms of kappa opioid receptor antagonist and products and methods related thereto” (Neumora Therapeutics, Inc., priority 2023, dated 2024)
“And” between values parts separate entries of the source, which are not always exact repeats. Identical values can stand only once.

How the values were obtained:
Format in all cases: physicochemical
[1] = Log D7.6 shake-flask (octanol/phosphate buffer) and Log P calculation; settings: pH 7.6
Method: The actual weight was recorded. The solid was dissolved and diluted to volume with ACN:H2O (1:1, v/v). Stock solutions were prepared in duplicate. The stock solutions were diluted by 50 times by transferring 1 mL of stock solution into 50-mL volumetric flask and then diluted to volume with ACN/water ACN:H2O (1:1, v/v). The 1/50 solutions were used to collect spectra with full wave scanning from 190 nm to 700 nm and absorbance at 235 nm, 270 nm, 290 nm and 365 nm using spectrophotometer with the background subtracted. MEC was then calculated by the following equation: MEC(L mol−1 cm−1)=Absorbance/conc.(mol/L)/Cell length(cm) Log D7.6 Measurements Preparation of Solvents • 0.1 M KH2PO4: 1.36 g of solid KH2PO4 was added into a 100-mL volumetric flask, the solid was dissolved with ultrapure water and diluted to volume. • 0.1 M K2HPO4: 1.73 g of solid K2HPO4 was added into a 100-mL volumetric flask, the solid was dissolved with ultrapure water and diluted to volume. • 100 mL of 0.1 M K2HPO4 solution and 30 mL of 0.1 M KH2PO4 was transferred to a 250-mL beaker and mixed. […] Sample Analysis and Data Calculation • After phase separated, the phases were physically separated, and the concentrations of compounds in each phase were determined by HPLC using the HPLC conditions and parameters in Table 5. • Distribution coefficient, referred to as Dow, was calculated as the concentration of the test compound (both ionized and unionized) in the octanol phase divided by the corresponding concentration in the aqueous phase. Log D7.6 was calculated as an average of the log 10 of Dow based on three runs. […] The mixture was then diluted to volume with purified water, mixed, and pH was measured with a pH meter. • 50 mM citrate pH 4.0 buffer: 65.3 mg of citric acid (monohydrate) and 56.9 mg of sodium citrate (dihydrate) were transferred to a 10-mL volumetric flask, purified water was added to obtain the target volume, and pH was adjust to 4.0. […]

[2] = Molar extinction coefficient (MEC) to evaluate photo reactivity; settings: for MEC Ave.: average of duplicate
Method: The actual weight was recorded. The solid was dissolved and diluted to volume with ACN:H2O (1:1, v/v). Stock solutions were prepared in duplicate. The stock solutions were diluted by 50 times by transferring 1 mL of stock solution into 50-mL volumetric flask and then diluted to volume with ACN/water ACN:H2O (1:1, v/v). The 1/50 solutions were used to collect spectra with full wave scanning from 190 nm to 700 nm and absorbance at 235 nm, 270 nm, 290 nm and 365 nm using spectrophotometer with the background subtracted. MEC was then calculated by the following equation: MEC(L mol−1 cm−1)=Absorbance/conc.(mol/L)/Cell length(cm) Log D7.6 Measurements Preparation of Solvents • 0.1 M KH2PO4: 1.36 g of solid KH2PO4 was added into a 100-mL volumetric flask, the solid was dissolved with ultrapure water and diluted to volume. • 0.1 M K2HPO4: 1.73 g of solid K2HPO4 was added into a 100-mL volumetric flask, the solid was dissolved with ultrapure water and diluted to volume. • 100 mL of 0.1 M K2HPO4 solution and 30 mL of 0.1 M KH2PO4 was transferred to a 250-mL beaker and mixed. Then, pH was adjusted 7.4 with the KH2PO4 solution. • Octanol and aqueous buffer were pre-equilibrated by adding 10 mL octanol and 10 mL aqueous buffer into a 20-mL glass vial and agitating the vial for 24 hrs. The mutually saturated octanol and aqueous buffer were then separated after phase separation. Sample Set up • Approximately 1.0 mg solids were weighted into a 3-mL glass vial with 1.0 mL of octanol inside, and dissolution was accelerated by ultrasonication. Then, 1.0 mL of complementary aqueous buffer was added into the vial. Samples were prepared in triplicate. The glass vial was sealed and mixed on a rotary mixer at 25° C. for 24 hrs. Sample Analysis and Data Calculation • After phase separated, the phases were physically separated, and the concentrations of compounds in each phase were determined by HPLC using the HPLC conditions and parameters in Table 5. • Distribution coefficient, referred to as Dow, was calculated as the concentration of the test compound (both ionized and unionized) in the octanol phase divided by the corresponding concentration in the aqueous phase. Log D7.6 was calculated as an average of the log 10 of Dow based on three runs. Solubility/Stability Measurements in pH Buffers Stock Solution Preparation • 0.2 M Hydrochloric Acid: 166 μL of 12 M hydrochloric acid is added into a 10-mL volumetric flask, and the resulting mixture was diluted to volume with purified water and mixed. • 0.2 M Sodium Hydroxide: 80.0 mg of sodium hydroxide was weighted into a 10-mL volumetric flask. The solid was dissolved with volume of purified water, diluted to volume and mixed. • 0.2 M Potassium Chloride: 148.8 mg of potassium chloride was weighted into a 10-mL volumetric flask. The solid was dissolved with volume of purified water, diluted to volume and mixed. • 0.2 M Potassium Phosphate, Monobasic: 271.5 mg of monobasic potassium phosphate (KH2PO4) was weighed into a 10-mL volumetric flask. The solid was dissolved with appropriate volume of purified water, diluted to volume and mixed. • 0.2 M Boric Acid and Potassium Chloride: 124.3 mg of boric acid (H3BO3) and 149.5 mg of potassium chloride (KCl) were mixed into a 10-mL volumetric flask. The solid was dissolved with appropriate volume of purified water, diluted to volume and mixed. pH Buffers Preparation • 50 mM KCl pH 2.0 buffer: 2.5 mL of 0.2 M potassium chloride solution and 0.65 mL of 0.2 M hydrochloric acid solution were transferred to a 10-mL volumetric flask. Purified water is added to the target volume, and pH is adjusted to 2.0. The mixture was then diluted to volume with purified water, mixed, and pH was measured with a pH meter. • 50 mM citrate pH 4.0 buffer: 65.3 mg of citric acid (monohydrate) and 56.9 mg of sodium citrate (dihydrate) were transferred to a 10-mL volumetric flask, purified water was added to obtain the target volume, and pH was adjust to 4.0. […]

[3] = Solubility measurement in organic solvents at 25° C. for 24 hours; settings: for solubility at 24 h: organic solvent or mixture, thermodynamic from solid; for Final form of residual solids: XRPD
[4] = pKa measurement (Sirius T3, Yasuda-Shedlovsky extrapolation); settings: Sirius T3, MeOH and KCl solution, pH 2 to 12, Yasuda-Shedlovsky extrapolation
Text: pKa Measurements pKa measurements were taken using a Sirius T3 instrument in a solvent (MeOH and KCl solution). The process ran from low to high pH (2 to 12). MEC Measurements

CCc1cc(F)c2nc(N3CCC(NC4CCOCC4)CC3)c(-c3nc(C)no3)c(C)c2c1.Cl [HCl salt Type A, 1-(6-ethyl-8-fluoro-4-methyl-3-(3-methyl-1,2,4-oxadiazol-5-yl)quinolin-2-yl)-N-(tetrahydro-2H-pyran-4-yl)piperidin-4-amine hydrochloride]
Average of Log D7.6 ([1]; 24 h): 2.87 | logP ([1]; calculated: Log D7.6 + lg[1+10^(pKa-pH)]): 4 | logD [1]: 2.87 | MEC Ave. ([2]; 235 nm): 26184.9 L/mol/cm | MEC ([2]; 235 nm, single solution, ACN:H2O (1:1, v/v), hydrochloride): 26246.5 L/mol/cm and 26123.4 L/mol/cm | MEC Ave. ([2]; 270 nm): 29997.1 L/mol/cm | MEC ([2]; 270 nm, single solution, ACN:H2O (1:1, v/v), hydrochloride): 30005.4 L/mol/cm and 29988.9 L/mol/cm | MEC Ave. ([2]; 290 nm): 13591.0 L/mol/cm | MEC ([2]; 290 nm, single solution, ACN:H2O (1:1, v/v), hydrochloride): 13615.7 L/mol/cm and 13566.4 L/mol/cm | MEC Ave. ([2]; 365 nm): 2162.6 L/mol/cm | MEC ([2]; 365 nm, single solution, ACN:H2O (1:1, v/v), hydrochloride): 2207.7 L/mol/cm and 2117.4 L/mol/cm | MEC ([2]; at all selected wavelength): > 1000 L/mol/cm | solubility at 24 h ([3]; 25 °C, nonpolar solvents (hexane, heptane and toluene)): < 88 µg/mL | solubility at 24 h ([3]; 25 °C, polar solvents (DMSO and MeOH)): > 24900 µg/mL | Final form of residual solids ([3]; Acetone, 24 hrs): HCl salt Type A | Final form of residual solids ([3]; DMSO, 24 hrs, hydrochloride): Amorphous form | Final form of residual solids ([3]; DMSO, 24 hrs, listed as HCl Salt Type A, hydrochloride): Amorphons | Final form of residual solids ([3]; EtOAc (printed EtQAc), 24 hrs): HCl salt Type A | Final form of residual solids ([3]; EtOH, 24 hrs): HCl salt Type A | Final form of residual solids ([3]; Heptane, 24 hrs): HCl salt Type A | Final form of residual solids ([3]; Hexane, 24 hrs): HCl salt Type A | Final form of residual solids ([3]; IPA, 24 hrs): HCl salt Type A | Final form of residual solids ([3]; MeOH, 24 hrs): HCl salt Type A | Final form of residual solids ([3]; Toluene, 24 hrs): HCl salt Type A | solubility at 24 h ([3]; ethanol, EtOH, 25° C., 24 hrs): 3500 µg/mL | solubility at 24 h ([3]; methanol, MeOH, 25° C., 24 hrs): 24900 µg/mL | solubility at 24 h ([3]; Acetone, 25° C., 24 hrs): 91 µg/mL | solubility at 24 h ([3]; DMSO, 25° C., 24 hrs): 33500 µg/mL | solubility at 24 h ([3]; EtOAc (printed EtQAc), 25° C., 24 hrs): 11 µg/mL | solubility at 24 h ([3]; Heptane, 25° C., 24 hrs): 0.8 µg/mL | solubility at 24 h ([3]; Hexane, 25° C., 24 hrs): 0.4 µg/mL | solubility at 24 h ([3]; Toluene, 25° C., 24 hrs): 8.8 µg/mL | form change ([3]; organic solvents other than DMSO): No form change | pKa [4]: 8.68
